Experimental findings from ChEMBL document CHEMBL3804791, “Comparison of small molecules and oligonucleotides that target a toxic, non-coding RNA” (Bioorg Med Chem Lett, 2016) are described below.

The IC50 is the point on the concentration scale where inhibition reaches its midpoint.

Structures are written as SMILES. The source made the active and inactive calls. The rule behind the calls is not given here.

Series [1] concerns C2C12. The experiment in a line: Effect on r(CCUG)300 levels in mouse C2C12 cells at 10 uM by RT-qPCR method. It is filed as functional, cell-based. On the technique in general: In qPCR the cycle at which signal appears reflects the starting amount.
Series [2] concerns C2C12. The experiment in a line: Effect on BIN1 splicing patterns in mouse C2C12 cells at 1 to 20 uM by RT-qPCR method. The conditions noted are these: c2c12, 20 µM. It is filed as ADME, cell-based.
The subject of series [3] is C2C12. The experiment in a line: Binding affinity to r(CCUG)300 RNA (unknown origin) in mouse C2C12 cells transfected with BIN1 assessed as rescue of BIN1 splicing defect at 10 uM after 72 hrs by PCR analysis. It is filed as cell-based.
The nature of series [4]: Binding affinity to 5-biotin-r(CCUG)12 RNA (unknown origin) assessed as inhibition of r(CCUG)12/His6-tagged MBNL1 complex formation preincubated for 15 mins followed by addition of His6-tagged MBNL1 by TR-FRET assay. A general note: TR-FRET usually uses a lanthanide donor and a delayed reading to cut background.
A short description of series [5]: Binding affinity to 5-biotin-r(CCUG)12 RNA (unknown origin) assessed as disruption of 5-biotin-r(CCUG)12/His6-tagged MBNL1 complex incubated for 15 mins by TR-FRET assay.
For series [6], the system named is C2C12. Briefly: Binding affinity to r(CCUG)300 RNA (unknown origin) in mouse C2C12 cells transfected with BIN1 splicing mini gene assessed as rescue of BIN1 splicing defect at 100 nM after 72 hrs by PCR analysis. It counts as cell-based.
Series [7] in a line: Binding affinity to r(CCUG)300 RNA (unknown origin) in mouse C2C12 cells transfected with BIN1 assessed as rescue of BIN1 splicing defect after 72 hrs by PCR analysis. It is filed as cell-based.
Series [8] has as its system C2C12. Briefly: Effect on BIN1 splicing patterns in mouse C2C12 cells at 0.1 to 10 uM by RT-qPCR method. It counts as ADME, cell-based. The settings on record: c2c12, 10 µM.

Consider `C#CCCCC(=O)NC[C@H]1O[C@H](O[C@H]2[C@H](O)[C@@H](O[C@H]3O[C@H](CN=[N+]=[N-])[C@@H](O)[C@H](N)[C@H]3O)[C@H](N)C[C@@H]2N)[C@H](O)[C@@H](O)[C@@H]1O`, for which, in the series with C2C12 [1], the outcome was inactive.

On to `C#CCCCC(=O)NC[C@@H]1O[C@@H](O[C@H]2[C@H](O)[C@@H](O[C@@H]3O[C@@H](CO)[C@H](O)[C@@H](N)[C@@H]3O)[C@H](N)C[C@@H]2N)[C@@H](O)[C@H](O)[C@H]1O`, for which the result with C2C12 [1] was inactive. Besides, the Activity result is “Non-toxic” in the series on C2C12 [2] and 15% in the series on C2C12 [3].

With `Nc1ccn([C@@H]2C[C@@H](OP(=O)(O)OC[C@H]3O[C@@H](n4cnc5c(N)ncnc54)C[C@@H]3OP(=O)(O)OC[C@H]3O[C@@H](n4cnc5c(=O)[nH]c(N)nc54)C[C@@H]3OP(=O)(O)OC[C@@H]3O[C@H](n4cnc5c(=O)[nH]c(N)nc54)C[C@H]3OP(=O)(O)OC[C@@H]3O[C@H](n4ccc(N)nc4=O)C[C@H]3OP(=O)(O)OC[C@H]3O[C@@H](n4cnc5c(N)ncnc54)C[C@@H]3OP(=O)(O)OC[C@H]3O[C@@H](n4cnc5c(=O)[nH]c(N)nc54)C[C@@H]3OP(=O)(O)OC[C@H]3O[C@@H](n4cnc5c(=O)[nH]c(N)nc54)C[C@@H]3O)[C@H](COP(=O)(O)O[C@H]3C[C@H](n4cnc5c(=O)[nH]c(N)nc54)O[C@@H]3COP(=O)(O)O[C@@H]3C[C@@H](n4cnc5c(=O)[nH]c(N)nc54)O[C@H]3COP(=O)(O)O[C@@H]3C[C@@H](n4cnc5c(N)ncnc54)O[C@H]3COP(=O)(O)O[C@H]3C[C@H](n4ccc(N)nc4=O)O[C@@H]3COP(=O)(O)O)O2)c(=O)n1`, the concentration for half-maximal inhibition (IC50) in series [4] was 0.3 µM; in series [5], 0.47 µM.

For `C#CNC(=O)CC(=O)NC[C@H]1O[C@H](O[C@@H]2[C@@H](O)[C@H](O[C@@H]3O[C@@H](CN=[N+]=[N-])[C@H](O)[C@@H](N)[C@@H]3O)[C@@H](N)C[C@H]2N)[C@H](O)[C@@H](O)[C@@H]1O` (stereo in doubt), the Activity in the series with C2C12 [6] is 50%; with C2C12 [8] it was “Non-toxic”. The IC50 in series [7] was 0.08 µM.

Turning to `CCCN(CC(=O)N(CCC)CC(=O)N(CCC)CC(=O)N(CCC)CC(=O)N(CCCn1cc(CCCC(=O)NC[C@H]2O[C@H](O[C@@H]3[C@@H](O)[C@H](O[C@@H]4O[C@@H](CO)[C@H](O)[C@@H](N)[C@@H]4O)[C@@H](N)C[C@H]3N)[C@H](O)[C@@H](O)[C@@H]2O)nn1)CC(N)=O)C(=O)CNCCCn1cc(CCCC(=O)NC[C@@H]2O[C@@H](O[C@@H]3[C@@H](O)[C@H](O[C@@H]4O[C@@H](CO)[C@H](O)[C@@H](N)[C@@H]4O)[C@@H](N)C[C@H]3N)[C@@H](O)[C@H](O)[C@H]2O)nn1`, the outcome in the series on C2C12 [1] was inactive. Also, the Activity with C2C12 [3] is 60%; in the series on C2C12 [8], “Non-toxic”.

On to `Nc1ccn([C@@H]2C[C@@H](OP(=O)(O)OC[C@H]3O[C@@H](n4cnc5c(N)ncnc54)C[C@@H]3OP(=O)(O)OC[C@H]3O[C@@H](n4cnc5c(=O)[nH]c(N)nc54)C[C@@H]3OP(=O)(O)OC[C@H]3O[C@@H](n4cnc5c(=O)[nH]c(N)nc54)C[C@@H]3OP(=O)(O)OC[C@@H]3O[C@H](n4ccc(N)nc4=O)C[C@H]3OP(=O)(O)OC[C@@H]3O[C@H](n4cnc5c(N)ncnc54)C[C@H]3OP(=O)(O)OC[C@@H]3O[C@H](n4cnc5c(=O)[nH]c(N)nc54)C[C@H]3OP(=O)(O)OC[C@H]3O[C@@H](n4cnc5c(=O)[nH]c(N)nc54)C[C@@H]3O)[C@H](COP(=O)(O)O)O2)c(=O)n1`, for which the half-maximal inhibitory concentration (IC50) in series [4] was found to be 0.7 µM; in series [5], 0.83 µM.
